Earlier results, collected in patent US20150164858A1, “COMBINATION COMPRISING PARTHENOLIDE FOR USE IN THE TREATMENT OF ALZHEIMER'S DISEASE AND OTHER NEURODEGENERATIVE DISORDERS” (King Abdullah University of Science and Technology, priority 2012, published 2015).

Assays:
[1] = target: TLR4 (Homo sapiens, UniProt O00206)
[2] = test system: HEK293 cells stably expressing TLR4/MD-2/CD14
[3] = test system: patients with AD; conditions: moderate to severe AD

TLR4, sequence (O00206 24-839): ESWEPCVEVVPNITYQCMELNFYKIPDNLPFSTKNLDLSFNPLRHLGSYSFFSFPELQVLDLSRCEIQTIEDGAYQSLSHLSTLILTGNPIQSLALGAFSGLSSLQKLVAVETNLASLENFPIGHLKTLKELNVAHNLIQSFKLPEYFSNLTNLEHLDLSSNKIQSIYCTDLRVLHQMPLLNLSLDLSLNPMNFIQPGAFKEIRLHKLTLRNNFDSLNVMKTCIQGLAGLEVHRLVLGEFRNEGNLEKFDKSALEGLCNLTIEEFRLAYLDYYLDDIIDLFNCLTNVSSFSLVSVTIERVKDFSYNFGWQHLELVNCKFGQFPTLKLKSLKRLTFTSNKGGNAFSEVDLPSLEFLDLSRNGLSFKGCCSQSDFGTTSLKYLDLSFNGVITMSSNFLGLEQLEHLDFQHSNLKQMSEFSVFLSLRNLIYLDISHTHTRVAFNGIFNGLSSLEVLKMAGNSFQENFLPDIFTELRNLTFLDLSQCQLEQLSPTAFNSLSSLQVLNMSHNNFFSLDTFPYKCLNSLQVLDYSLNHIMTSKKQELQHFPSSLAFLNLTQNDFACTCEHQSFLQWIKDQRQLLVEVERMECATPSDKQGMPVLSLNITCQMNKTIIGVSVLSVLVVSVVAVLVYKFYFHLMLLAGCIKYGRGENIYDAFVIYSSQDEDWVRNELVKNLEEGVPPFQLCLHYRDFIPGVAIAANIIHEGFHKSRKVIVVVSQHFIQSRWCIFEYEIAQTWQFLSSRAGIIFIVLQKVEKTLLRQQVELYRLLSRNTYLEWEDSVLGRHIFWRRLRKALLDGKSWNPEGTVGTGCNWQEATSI

Structure (SMILES)	TLR4 signaling [1]	binding site in TLR4 ([1]; intracellular domain of TLR4)	TIRAP-mediated activation of NF-κB [2]	TRAM-mediated activation of NF-κB and interferon-sensitive response element [2]	cognitive function [3]
CCOC(=O)C1=CCCC[C@H]1S(=O)(=O)Nc1ccc(F)cc1Cl [Resatorvid]	suppress TLR4 signaling	binding directly to a specific amino acid Cys747	inhibit	inhibit	–
CC12CC3CC(C)(C1)CC(N)(C3)C2 [Memantine]	–	–	–	–	improve cognitive function
